This experiment concerns the target T1, cannabinoid CB1 receptor (CB1R) (Homo sapiens, UniProt P21554).
T1 construct: gene CNR1; SNAP-tagged CB1R in HEK-293T cells
In words: HTRF (Tag-lite) competition binding against fluorescent CELT-335. The format is cell-based. In general terms: In TR-FRET formats the signal depends on donor and acceptor labels being close together.

T1 sequence (P21554 whole entry): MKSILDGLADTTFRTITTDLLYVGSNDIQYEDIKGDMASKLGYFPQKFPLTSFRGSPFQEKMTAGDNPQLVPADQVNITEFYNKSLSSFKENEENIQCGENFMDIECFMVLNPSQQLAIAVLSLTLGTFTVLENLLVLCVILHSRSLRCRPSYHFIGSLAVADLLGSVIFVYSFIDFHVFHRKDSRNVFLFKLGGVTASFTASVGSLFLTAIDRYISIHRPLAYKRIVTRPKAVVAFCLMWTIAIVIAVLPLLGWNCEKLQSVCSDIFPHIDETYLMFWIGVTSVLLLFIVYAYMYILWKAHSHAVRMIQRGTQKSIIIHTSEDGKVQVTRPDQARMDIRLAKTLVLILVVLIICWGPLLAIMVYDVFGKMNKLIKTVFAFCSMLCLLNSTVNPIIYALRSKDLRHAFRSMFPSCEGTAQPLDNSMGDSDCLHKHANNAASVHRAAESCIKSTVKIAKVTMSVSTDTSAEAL

Consider `CCCCC/C=C\C/C=C\C/C=C\C/C=C\CCCC(=O)NCCCl` [ACEA], for which the Ki (usually a dissociation constant, usually derived from enzyme kinetics or from competition with a known ligand) stood at 4.8 nM.

The values are drawn from PMC12441857, “Cannabinoid CB1 Receptor Activation Mitigates N‑Methyl‑D‑aspartate Receptor-Mediated Neurotoxicity” (ACS Pharmacology & Translational Science, 2025).
